# According to patent publication US10023558B2, “Compounds” (CHIESI FARMACEUTICI S.P.A., priority 2016, dated 2018):
# Biological target: T1, human neutrophil elastase (HNE) (Homo sapiens, UniProt P08246)
# T1 construct: purchased Sigma E8140
# T1 sequence (P08246 30-247 limits assumed): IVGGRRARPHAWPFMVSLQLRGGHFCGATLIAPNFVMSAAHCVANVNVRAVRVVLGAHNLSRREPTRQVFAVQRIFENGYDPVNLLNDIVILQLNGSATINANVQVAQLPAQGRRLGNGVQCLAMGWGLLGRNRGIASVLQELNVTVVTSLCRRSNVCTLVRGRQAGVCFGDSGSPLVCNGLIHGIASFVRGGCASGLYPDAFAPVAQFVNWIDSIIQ
# Assay: HNE Enzyme Assay (fluorogenic peptide substrate MeOSuc-Ala-Ala-Pro-Val-AMC)
# Type: biochemical
# Conditions: human leukocyte elastase 0.00072 U/mL, substrate 100 μM, 25° C., 30 minutes, at least two separate experiments; read-out: HNE inhibition (IC50 values)
# Procedure, shortened: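 Human leukocyte elastase (0.00072 U/mL) with 100 μM MeOSuc-AAPV-AMC in Tris pH 7.5 buffer with NaCl, CaCl2, Brij-35, 1% DMSO, 30 min at 25° C, stopped with soybean trypsin inhibitor. AMC fluorescence (ex 380/em 460 nm); IC50 from concentration-response as % inhibition of control, at least two experiments.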
row,IC50 [nM],SMILES
1,< 1,"Cc1cc(C[N+](C)(C)[C@H]2CC[C@H](NC(=O)n3c(-c4ccnn4-c4ccc(C#N)cc4)c(C)n(-c4cccc(C(F)(F)F)c4)c3=O)CC2)no1 [Example 75, (4-{[5-[2-(4-Cyano-phenyl)-2H-pyrazol-3-yl]-4-methyl-2-oxo-3-(3-trifluoromethyl-phenyl)-2,3-dihydro-imidazole-1-carbonyl]-amino}-cyclohexyl)-dimethyl-(5-methyl-isoxazol-3-ylmethyl)-ammonium chloride]"
2,< 1,"Cc1c(-c2ccnn2-c2ccc(C#N)cc2)n(C(=O)N[C@@H](C)c2ccc(C[N+](C)(C)C)cc2)c(=O)n1-c1cccc(C(F)(F)F)c1 [Example 58, [4-((S)-1-{[5-[2-(4-Cyano-phenyl)-2H-pyrazol-3-yl]-4-methyl-2-oxo-3-(3-trifluoromethyl-phenyl)-2,3-dihydro-imidazole-1-carbonyl]-amino}-ethyl)-benzyl]-trimethyl-ammonium benzene sulfonate]"
3,< 1,"CC[C@H](NC(=O)n1c(-c2ccnn2-c2ccc(C#N)cc2)c(C)n(-c2cccc(C(F)(F)F)c2)c1=O)c1ncc(CN(C)C)o1 [Example 22, 5-[2-(4-Cyano-phenyl)-2H-pyrazol-3-yl]-4-methyl-2-oxo-3-(3-trifluoromethyl-phenyl)-2,3-dihydro-imidazole-1-carboxylic acid [(S)-1-(5-dimethylaminomethyl-oxazol-2-yl)-propyl]-amide]"
4,< 1,"CC[N+](C)(C)C[C@H]1CC[C@H](NC(=O)n2c(-c3ccnn3-c3ccc(C#N)cc3)c(C)n(-c3cccc(C(F)(F)F)c3)c2=O)CC1 [Example 31, (Trans-4-{[5-[2-(4-cyano-phenyl)-2H-pyrazol-3-yl]-4-methyl-2-oxo-3-(3-trifluoromethyl-phenyl)-2,3-dihydro-imidazole-1-carbonyl]-amino}-cyclohexylmethyl)-ethyl-dimethyl-ammonium benzene sulfonate]"

# Second part, the molecule before the results:
row,SMILES,IC50 [nM]
1,"Cc1c(-c2ccnn2-c2ccc(C#N)cc2)n(C(=O)N[C@@H](C)C(=O)N(C)CCN(C)C)c(=O)n1-c1cccc(C(F)(F)F)c1 [Example 20, 5-[2-(4-Cyano-phenyl)-2H-pyrazol-3-yl]-4-methyl-2-oxo-3-(3-trifluoromethyl-phenyl)-2,3-dihydro-imidazole-1-carboxylic acid {(S)-1-[(2-dimethylamino-ethyl)-methyl-carbamoyl]-ethyl}-amide]",< 1
2,"Cc1c(-c2ccnn2-c2ccc(C#N)cc2)n(C(=O)NC2CC3(CC[N+](C)(C)CC3)C2)c(=O)n1-c1cccc(C(F)(F)F)c1 [Example 51, 2-{[5-[2-(4-Cyano-phenyl)-2H-pyrazol-3-yl]-4-methyl-2-oxo-3-(3-trifluoromethyl-phenyl)-2,3-dihydro-imidazole-1-carbonyl]-amino}-7,7-dimethyl-7-azonia-spiro[3.5]nonane benzene sulfonate]",< 1
3,"Cc1c(-c2ccnn2-c2ccc(C#N)cc2)n(C(=O)N[C@H]2CC[C@@H](C[N+](C)(C)Cc3ccccc3)CC2)c(=O)n1-c1cccc(C(F)(F)F)c1 [Example 54, Benzyl-(cis-4-{[5-[2-(4-cyano-phenyl)-2H-pyrazol-3-yl]-4-methyl-2-oxo-3-(3-trifiuoromethyl-phenyl)-2,3-dihydro-imidazole-1-carbonyl]-amino}-cyclohexylmethyl)-dimethyl-ammonium bromide]",1 to 10
4,"Cc1c(-c2ccnn2-c2ccc(C#N)cc2)n(C(=O)NC2CC[N+](C)(C)CC2)c(=O)n1-c1cccc(C(F)(F)F)c1 [Example 32, 4-{[5-[2-(4-Cyano-phenyl)-2H-pyrazol-3-yl]-4-methyl-2-oxo-3-(3-trifluoromethyl-phenyl)-2,3-dihydro-imidazole-1-carbonyl]-amino}-1,1-dimethyl-piperidinium benzenesulfonate]",< 1
